Patent publication US11661431B2, “Thienopyrrole compounds” (Gilead Sciences, Inc., priority 2021, dated 2023)

Tests used:
TLR8 = TLR8 (Homo sapiens (Human), UniProt Q9NR97); test: TLR8 human peripheral blood mononuclear cell (PBMC) cell-based assay (Compound A as agonist; TNFα and IL12p40 readout); conditions: human PBMCs, TLR8 agonist Compound A at 800 nM, 6 hours, antagonist potency; read-out: TLR-8 EC50
Description: After counting, the cell density was adjusted to 2 million cells/ml and incubated for 1 hour at 37° C., 5% CO2 for recovery. Following the recovery, the cells were plated by adding 50 μl per well (100,000 cells) to 384-well cell culture plates (Greiner) containing 250 nl of test antagonists in 100% DMSO per well, in a 10 points dose response in quadruplicates. PBMCs were incubated in the presence of antagonists for one hour at 37° C., 5% CO2 before being stimulated with TLR8 agonist. […] PBMCs were incubated in the presence of antagonist and the TLR8 agonist for an additional 6 hours at 37° C., 5% CO2. At the end of the incubation, the cell culture plates were centrifuged at 500 g for 5 min, and the cell culture supernatant was collected. The level of cytokines (TNFα and IL12p40) in the supernatant was measured by electrochemiluminescence immunoassays (Mesoscale Discovery) following manufacturer's recommended protocols.

TLR7 = TLR7 (Homo sapiens (Human), UniProt Q9NYK1); test: TLR7 human peripheral blood mononuclear cell (PBMC) cell-based assay (GS-986 as agonist; IL-6 and IFNα readout); conditions: human PBMCs, TLR7 agonist GS-986 at 400 nM, 6 hours, antagonist potency; read-out: TLR-7 EC50
Description: Human peripheral blood mononuclear cells (PBMCs) consist of lymphocytes, monocytes and dendritic cells that express TLR7, TLR8 and TLR9. These cells respond to TLR7, TLR8 and TLR9 ligand stimulation and produce cytokines and chemokines in vitro and in vivo. Human PBMCs are therefore suitable to be used in a cell-based assay to assess the in vitro potency of a TLR 7, 8, and/or 9 antagonist.
After counting, the cell density was adjusted to 2 million cells/ml and incubated for 1 hour at 37° C., 5% CO2 for recovery. Following the recovery, the cells were plated by adding 50 μl per well (100,000 cells) to 384-well cell culture plates (Greiner) containing 250 nl of test antagonists in 100% DMSO per well, in a 10 points dose response in quadruplicates. PBMCs were incubated in the presence of test antagonists for one hour at 37° C., 5% CO2 before being stimulated with a TLR7 or TLR9agonist. […] PBMCs were incubated in the presence of the test antagonist and the TLR7 (or TLR9) agonist for an additional 6 hours at 37° C., 5% CO2. At the end of the incubation, the cell culture plates were centrifuged at 500 g for 5 min, and the cell culture supernatant was collected. The level of cytokines (IL-6 and IFNα) in the supernatant was measured by electrochemiluminescence immunoassays (Mesoscale Discovery) following manufacturer's recommended protocols.

Chain of TLR7 (Q9NYK1 27-1049): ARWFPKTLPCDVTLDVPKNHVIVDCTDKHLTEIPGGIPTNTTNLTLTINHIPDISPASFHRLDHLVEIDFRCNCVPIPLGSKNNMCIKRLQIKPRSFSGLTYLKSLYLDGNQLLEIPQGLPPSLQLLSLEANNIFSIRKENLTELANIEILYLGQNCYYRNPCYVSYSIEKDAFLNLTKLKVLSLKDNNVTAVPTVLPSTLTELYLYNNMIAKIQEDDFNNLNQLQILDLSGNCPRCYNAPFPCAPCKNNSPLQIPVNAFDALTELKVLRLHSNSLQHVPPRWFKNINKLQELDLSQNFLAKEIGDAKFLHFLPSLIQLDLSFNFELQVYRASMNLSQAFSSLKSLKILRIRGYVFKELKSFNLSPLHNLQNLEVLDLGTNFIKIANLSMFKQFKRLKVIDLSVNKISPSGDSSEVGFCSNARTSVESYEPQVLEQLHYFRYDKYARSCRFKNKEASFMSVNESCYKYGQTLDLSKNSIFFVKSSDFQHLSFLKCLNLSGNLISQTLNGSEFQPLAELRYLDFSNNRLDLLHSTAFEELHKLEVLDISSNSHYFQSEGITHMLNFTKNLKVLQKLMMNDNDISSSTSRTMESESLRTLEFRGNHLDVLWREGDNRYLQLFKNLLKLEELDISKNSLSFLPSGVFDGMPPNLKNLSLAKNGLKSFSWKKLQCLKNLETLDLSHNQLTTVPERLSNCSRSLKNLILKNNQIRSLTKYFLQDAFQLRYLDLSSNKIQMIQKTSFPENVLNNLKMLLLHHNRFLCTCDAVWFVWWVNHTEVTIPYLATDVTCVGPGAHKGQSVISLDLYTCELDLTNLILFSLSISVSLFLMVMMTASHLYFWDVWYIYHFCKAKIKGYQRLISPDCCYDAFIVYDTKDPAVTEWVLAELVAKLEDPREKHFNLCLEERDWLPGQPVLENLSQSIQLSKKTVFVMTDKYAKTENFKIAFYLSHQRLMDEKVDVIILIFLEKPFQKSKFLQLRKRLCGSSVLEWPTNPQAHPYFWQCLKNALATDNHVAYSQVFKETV
Chain of TLR8 (Q9NR97 27-1041): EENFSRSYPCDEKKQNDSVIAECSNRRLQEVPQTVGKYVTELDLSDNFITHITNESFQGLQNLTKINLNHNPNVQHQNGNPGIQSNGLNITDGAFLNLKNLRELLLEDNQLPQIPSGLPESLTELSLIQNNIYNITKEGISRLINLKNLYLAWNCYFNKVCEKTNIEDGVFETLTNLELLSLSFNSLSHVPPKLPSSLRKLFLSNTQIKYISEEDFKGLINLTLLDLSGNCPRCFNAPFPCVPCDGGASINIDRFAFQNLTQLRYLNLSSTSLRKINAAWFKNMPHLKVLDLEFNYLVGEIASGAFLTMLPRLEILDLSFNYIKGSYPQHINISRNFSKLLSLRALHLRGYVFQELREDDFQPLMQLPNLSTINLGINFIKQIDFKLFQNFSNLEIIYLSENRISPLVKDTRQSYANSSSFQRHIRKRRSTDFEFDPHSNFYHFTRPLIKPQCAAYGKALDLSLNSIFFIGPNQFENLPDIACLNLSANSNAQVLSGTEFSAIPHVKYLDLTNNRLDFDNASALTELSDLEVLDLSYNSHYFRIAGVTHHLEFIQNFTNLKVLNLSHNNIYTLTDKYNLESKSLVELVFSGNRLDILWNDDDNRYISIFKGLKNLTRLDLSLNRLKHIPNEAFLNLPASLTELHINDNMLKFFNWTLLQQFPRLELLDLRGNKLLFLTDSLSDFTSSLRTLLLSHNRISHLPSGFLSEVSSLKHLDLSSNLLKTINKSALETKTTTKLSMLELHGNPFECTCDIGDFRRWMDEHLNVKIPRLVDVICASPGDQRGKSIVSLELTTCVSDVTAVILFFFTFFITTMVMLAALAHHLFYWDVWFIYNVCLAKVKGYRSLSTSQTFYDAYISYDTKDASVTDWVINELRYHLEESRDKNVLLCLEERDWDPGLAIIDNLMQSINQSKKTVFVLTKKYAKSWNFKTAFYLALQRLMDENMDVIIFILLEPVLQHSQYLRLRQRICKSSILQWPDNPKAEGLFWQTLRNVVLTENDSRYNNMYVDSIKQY

| SMILES | EC50 (TLR8) [nM] | EC50 (TLR7) [nM] |
| --- | --- | --- |
| Cc1c(-c2[nH]c3sc(C4COC5(CCN(CC(N)=O)CC5)C4)c(C)c3c2C(C)C)cn2ncnc2c1C (single isomer, unassigned) [Example 87, 2-(3-(5-(7,8-dimethyl-[1,2,4]triazolo[1,5-a]pyridin-6-yl)-4-isopropyl-3-methyl-6H-thieno[2,3-b]pyrrol-2-yl)-1-oxa-8-azaspiro[4.5]decan-8-yl)acetamide] | 20.9 | 0.87 |
| Cc1c(C2CCC3(C2)CN(CC(N)=O)C3)sc2[nH]c(-c3cc(C)c4ncnn4c3)c(C(C)C)c12 (stereo not drawn) [Example 122] | 1.63 | 0.38 |
| Cc1c(-c2[nH]c3sc(C4CC5(CCN(CC(N)=O)C5)C4)c(C)c3c2C(C)C)cn2ncnc2c1C (single isomer, unassigned) [Example 85, 2-(2-(5-(7,8-dimethyl-[1,2,4]triazolo[1,5-a]pyridin-6-yl)-4 isopropyl-3-methyl-6H-thieno[2,3-b]pyrrol-2-yl)-6-azaspiro[3.4]octan-6-yl)acetamide] | 0.39 | 0.35 |
| Cc1c(-c2[nH]c3sc(C4CCC(N5CC6(C5)CS(=O)(=O)C6)CC4)c(C)c3c2C(C)C)cn2ncnc2c1C (stereo not drawn) [Example 301] | 5.66 | 0.13 |
| Cc1c([C@H]2C[C@H]3C[C@@H]2CN3CC(N)=O)sc2[nH]c(-c3cc(C)c4ncnn4c3)c(C(C)C)c12 [Example 145] | 1.86 | 0.09 |
| Cc1c(C2CCN(CCO)CC2)sc2[nH]c(-c3cc(C)c4ncnn4c3)c(C(C)C)c12 [Example 13, 2-(4-(4-isopropyl-3-methyl-5-(8-methyl-[1,2,4]triazolo[1,5-a]pyridin-6-yl)-6H-thieno[2,3-b]pyrrol-2-yl)piperidin-1-yl)ethan-1-ol] | 7.11 | 1.27 |
| Cc1c(-c2[nH]c3sc([C@@H]4C[C@@H]5C[C@H]4CN5C4(CC#N)CN(S(C)(=O)=O)C4)c(C)c3c2C(C)C)cn2ncnc2c1C [Example 153] | 23.2 | 0.77 |
| CO[C@@H]1CN[C@@H](C(=O)N2CCC(c3sc4[nH]c(-c5cc(C)c6ncnn6c5)c(C(C)C)c4c3C)CC2)C1 [Example 45] | 15.6 | 0.13 |
| Cc1c(-c2[nH]c3sc([C@@H]4C[C@@H]5C[C@H]4CN5CCS(=O)(=O)N(C)C)c(C)c3c2C(C)C)cn2ncnc2c1C [Example 181] | 1.23 | 0.27 |
| COCCNC(=O)CN1C[C@@H]2C[C@H]1C[C@H]2c1sc2[nH]c(-c3cn4ncnc4c(C)c3C)c(C(C)C)c2c1C [Example 272] | 1.19 | 2.13 |
| Cc1c(C2CCN(C(=O)C34CC(CN3)C4)CC2)sc2[nH]c(-c3cc(C)c4ncnn4c3)c(C(C)C)c12 [Example 40] | 3.14 | 0.07 |
| Cc1c(C2CCNCC2)sc2[nH]c(-c3cn(C)c4ncccc34)c(C(C)C)c12 [Example 249] | 3.02 | 0.32 |
| Cc1c(C2CCN(C(=O)[C@H]3CC(F)(F)CN3)CC2)sc2[nH]c(-c3cc(C)c4ncnn4c3)c(C(C)C)c12 [Example 39] | 125 | 1.18 |
| Cc1c(-c2[nH]c3sc([C@@H]4C[C@@H]5C[C@H]4CN5CC(=O)NCCO)c(C)c3c2C(C)C)cn2ncnc2c1C [Example 267] | 0.15 | 0.47 |
| Cc1c(C2CCN(C(=O)CN(C)C)CC2)sc2[nH]c(-c3cc(C)c4ncnn4c3)c(C(C)C)c12 [Example 10, 2-(dimethylamino)-1-(4-(4-isopropyl-3-methyl-5-(8-methyl-[1,2,4]triazolo[1,5-a]pyridin-6-yl)-6H-thieno[2,3-b]pyrrol-2-yl)piperidin-1-yl)ethan-1-one] | 9.29 | 0.18 |
| Cc1c(C2CC23CCNCC3)sc2[nH]c(-c3cc(C)c4ncnn4c3)c(C(C)C)c12 (stereo not drawn) [Example 209] | 10.7 | 0.94 |
| Cc1c(C2C3CC2CN(CC(N)=O)C3)sc2[nH]c(-c3cc(C)c4ncnn4c3)c(C(C)C)c12 (stereo not drawn) [Example 65] | 33.1 | 28.1 |

| SMILES | EC50 (TLR8) [nM] | EC50 (TLR7) [nM] |
| --- | --- | --- |
| Cc1c(-c2[nH]c3sc([C@@H]4C[C@@H]5C[C@H]4CN5C4CCS(=O)(=O)C4)c(C)c3c2C(C)C)cn2ncnc2c1C (stereo partly drawn) [Example 294, 3-[(1S,4R)-5-[5-(7,8-dimethyl-[1,2,4]triazolo[1,5-a]pyridin-6-yl)-4-isopropyl-3-methyl-6H-thieno[2,3-b]pyrrol-2-yl]-2-azabicyclo[2.2.1]heptan-2-yl]thiolane 1,1-dioxide] | 2.77 | 0.71 |
| Cc1c(-c2[nH]c3sc([C@@H]4C[C@@H]5C[C@H]4CN5CCS(C)(=O)=O)cc3c2C(C)C)cn2ncnc2c1C [Example 218] | 0.88 | 0.45 |
| Cc1c(-c2[nH]c3sc(C4CCN(C(=O)[C@@H]5CC(F)(F)CCN5)CC4)c(C)c3c2C(C)C)cn2ncnc2c1C [Example 282] | 19.5 | 1.19 |
| Cc1c(-c2[nH]c3sc(C4CCN(C(=O)[C@H]5C[C@@H](C(F)(F)F)CCN5)CC4)c(C)c3c2C(C)C)cn2ncnc2c1C [Example 284] | 4.91 | 0.32 |
| Cc1c(-c2[nH]c3sc([C@@H]4C[C@@H]5C[C@H]4CN5CCS(N)(=O)=O)c(C)c3c2C(C)C)cn2ncnc2c1C [Example 180] | 0.17 | < 0.05 |
| Cc1c(-c2[nH]c3sc([C@@H]4C[C@@H]5C[C@H]4CN5CC(=O)NC4COC4)c(C)c3c2C(C)C)cn2ncnc2c1C [Example 274] | 1.23 | 1.54 |
| Cc1c(C2CCC3(CC2)CNC3)sc2[nH]c(-c3cc(C)c4ncnn4c3)c(C(C)C)c12 [Example 24] | 8.98 | 0.29 |
| Cc1c(-c2[nH]c3sc([C@@H]4C[C@@H]5C[C@H]4CN5C(C)C(N)=O)c(C)c3c2C(C)C)cn2ncnc2c1C (single isomer, unassigned) [Example 101] | 0.73 | 0.32 |
| Cc1c([C@@H]2C[C@H]3CC[C@@H]2CN3CC(N)=O)sc2[nH]c(-c3cc(C)c4ncnn4c3)c(C(C)C)c12 (single isomer, unassigned) [Example 191] | 8.77 | < 0.05 |
| Cc1c(C2C[C@H]3CC[C@@H]2CN3)sc2[nH]c(-c3cc(C)c4ncnn4c3)c(C(C)C)c12 (stereo partly drawn) [Example 189] | 30.9 | 2.23 |
| Cc1c(C2C3CCC2CN(CC(N)=O)C3)sc2[nH]c(-c3cc(C)c4ncnn4c3)c(C(C)C)c12 (stereo not drawn) [Example 63] | 27.3 | 0.26 |
| Cc1c(-c2[nH]c3sc(C4CCNCC4)cc3c2C(C)C)cn2ncnc2c1C [Example 219] | 3.01 | 0.26 |
| Cc1cc(-c2[nH]c3sc(C4CCNCC4)c(CO)c3c2C(C)C)cn2ncnc12 [Example 258, (4-isopropyl-5-(8-methyl-[1,2,4]triazolo[1,5-a]pyridin-6-yl)-2-(piperidin-4-yl)-6H-thieno[2,3-b]pyrrol-3-yl)methanol] | 13.6 | 0.89 |
| Cc1c(C2CCC3(CCN(CC(N)=O)CC3)C2)sc2[nH]c(-c3cc(C)c4ncnn4c3)c(C(C)C)c12 (stereo not drawn) [Example 133] | 5.06 | 0.6 |
| Cc1c(C2CCN(C(=O)C3COCC(C)(C)N3)CC2)sc2[nH]c(-c3cc(C)c4ncnn4c3)c(C(C)C)c12 (stereo not drawn) [Example 54] | 19.8 | 0.59 |
| Cc1c(C2CC2C(=O)N2CCNCC2)sc2[nH]c(-c3cc(C)c4ncnn4c3)c(C(C)C)c12 (stereo not drawn) [Example 192] | > 1000 | 274 |
